{
  "source": "patent US20150224190A1",
  "about": "“Combination of a phosphoinositide 3-kinase inhibitor and an inhibitor of the IL-8/CXCR interaction” (priority 2012, published 2015)",
  "key": {"JAK2/STAT5": {"tested_on": "JAK2/STAT5", "test": "JAK2/STAT5 activation in human primary triple-negative breast tumors grown in immunodeficient mice", "format": "in vivo", "conditions": "30 mg/kg BEZ235 for 4 days vs vehicle", "protocol": "FIG. 4. BEZ235 treatment activates JAK2/STAT5 and IL-8 secretion in human primary triple-negative breast tumors Immunoblots of lysates from primary triple-negative breast tumors grown in immunodeficient mice and treated for 4 days with 30 mg/kg BEZ235 or vehicle (VHC). pJAK2 levels were measured in triplicate by ELISA and normalized to total JAK2 levels (Y-axis).\nCells for Western Blotting and ELISA were lysed with RIPA buffer. […]\nFor assessing pJAK2 levels, an ELISA assay (Tyr1007/1008, Invitrogen) was applied because of cross-reactivity of all pJAK2 antibodies tested. Interleukin-8 levels in RIPA lysates, cell culture supernatants and mouse tail vein blood plasma were measured by ELISA, as well (Biolegend). […]"}, "pSTAT3": {"tested_on": "pSTAT3", "test": "pSTAT3 levels on treatment", "format": "cell-based", "conditions": "BEZ235 treatment", "protocol": "Cells for Western Blotting and ELISA were lysed with RIPA buffer. Xenograft lysates were prepared by lysing kryo-homogenized tumor powder in RIPA buffer (50 mM Tris-HCl pH 8, 150 mM NaCl, 1% NP-40, 0.5% sodium deoxycholate, 0.1% SDS. RIPA was supplemented with 1× protease inhibitor cocktail (Complete Mini, Roche), 0.2 mmol/L sodium-vanadate, 20 mM sodium fluoride and 1 mmol/L phenylmethylsulfonyl fluoride. For IRS-1 immunoprecipitation, cell lysates containing 500-1000 μg of protein were incubated with 1 μg of antibody and 20-50 μl of protein A-Sepharose beads (Zymed Laboratories, Inc., South San Francisco, Calif.) overnight at 4° C. Immunoprecipitates or whole cell lysates (30-80 μg) were subjected to SDS-PAGE, transferred to PVDF membranes (Immobilon-P, Millipore) and blocked for 1 hr at room temperature with 5% milk in PBS-0.1% Tween 20. […]\nThe present inventors applied single doses of COMPOUND A, a dual PI3K and mTOR inhibitor, and analyzed target inhibition and potential signaling pathway crosstalks after 2, 4, 8 and 20 h hours of treatment. […] While RAD001 readily activated JAK2 starting at 4 hours of treatment, they observed a later response with BKM120 treatment starting at 8 hours after adding the compound. […]"}},
  "data": [
    {"smiles": "Cn1c(=O)n(-c2ccc(C(C)(C)C#N)cc2)c2c3cc(-c4cnc5ccccc5c4)ccc3ncc21", "note": "[COMPOUND A, 2-methyl-2-[4-(3-methyl-2-oxo-8-quinolin-3-yl-2,3-dihydro-imidazo[4,5-c]quinolin-1-yl)-phenyl]-propionitrile]", "values": [
      {"measurement": "JAK2/STAT5 activation (pJAK2 normalized to total JAK2, immunoblots)", "setting": "JAK2/STAT5", "value": "activates"},
      {"measurement": "Levels of pSTAT3", "setting": "pSTAT3", "value": "largely unaffected"}
    ]}
  ]
}
